Test results published in patent publication US11542280B2, “Substituted pyrimidinium compounds and derivatives for combating animal pests” (BASF SE, priority 2017, dated 2023).

Columns and labels:
Format in all cases: in vivo
Nilaparvata lugens = experiment: Rice brown plant hopper spray test on rice seedlings; conditions: adults on sprayed rice seedlings, after 72 hours, read-out: mortality in comparison with untreated controls
Procedure: (§1) General conditions: If not otherwise specified, the test solutions are prepared as follows:
(§2) The active compound is dissolved at the desired concentration in a mixture of 1:1 (vol:vol) distilled water: acetone. The test solution is prepared at the day of use.
(§3) Test solutions are prepared in general at different concentrations (wt/vol).
Rice seedlings are cleaned and washed 24 hours before spraying. The active compounds are formulated in 50:50 acetone:water (vol:vol) and 0.1% vol/vol surfactant (EL 620) is added. Potted rice seedlings are sprayed with 5 ml test solution, air dried, placed in cages and inoculated with 10 adults. Treated rice plants are kept at about 28-29° C. and relative humidity of about 50-60%. Percent mortality is recorded after 72 hours.

Nephotettix virescens = experiment: Rice green leafhopper spray test on rice seedlings; conditions: adults on sprayed rice seedlings, after 72 hours, read-out: mortality in comparison with untreated controls
Procedure: as §1, §2, §3
Rice seedlings are cleaned and washed 24 hours before spraying. The active compounds are formulated in 50:50 acetone:water (vol:vol), and 0.1% vol/vol surfactant (EL 620) is added. Potted rice seedlings are sprayed with 5 ml test solution, air dried, placed in cages and inoculated with 10 adults. Treated rice plants are kept at about 28-29° C. and relative humidity of about 50-60%. Percent mortality is recorded after 72 hours.

Dichromothrips corbetti = experiment: Orchid thrips floral-immersion test; conditions: adult thrips, 72 hours after treatment, read-out: mortality in comparison with untreated controls
Procedure: as §1, §2, §3
Dichromothrips corbetti adults used for bioassay are obtained from a colony maintained continuously under laboratory conditions. For testing purposes, the test compound is diluted in a 1:1 mixture of acetone:water (vol:vol), plus 0.01% vol/vol Alkamuls® EL 620 surfactant.
Thrips potency of each compound is evaluated by using a floral-immersion technique. Plastic petri dishes are used as test arenas. All petals of individual, intact orchid flowers are dipped into treatment solution and allowed to dry. Treated flowers are placed into individual petri dishes along with about 20 adult thrips. The petri dishes v then covered with lids. All test arenas are held under continuous light and a temperature of about 28° C. for duration of the assay. After 3 days, the numbers of live thrips are counted on each flower, and along inner walls of each petri dish. The percent mortality is recorded 72 hours after treatment.

Measured: mortality at 500 ppm

Cn1c2[n+](c([O-])c(-c3ccccc3)c1=O)C(CC#N)CS2 (stereo not drawn) [Example C1, 3-(cyanomethyl)-8-methyl-7-oxo-6-phenyl-2,3-dihydrothiazolo[3,2-a]pyrimidin-4-ium-5-olate]
> 75%: all assays above
